From ChEMBL document CHEMBL1201862, “PubChem BioAssay data set” (2004)
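Exposure lasted 48 hours, with cells grown in 96-well plates and compounds tested at five concentrations. GI50: concentration for 50% inhibition of growth.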 Active and inactive are the calls of the source. Rule as the data show it: active = GI50 up to about 1.1 µM and inactive = higher.

Assays:
Assay in all cases: DTP human tumour cell line panel, 48 h
[1] = test system: HCT-15
[2] = test system: COLO 205
[3] = test system: SF-539
[4] = test system: PC-3
[5] = test system: K562
[6] = test system: ACHN
[7] = test system: HCC 2998
[8] = test system: OVCAR-5
[9] = test system: SNB-75
[10] = test system: RXF 393
[11] = test system: U-251
[12] = test system: UACC-257
[13] = test system: BT-549
[14] = test system: A498
[15] = test system: UACC-62
[16] = test system: TK-10
[17] = test system: RPMI-8226
[18] = test system: NCI-H23
[19] = test system: M14
[20] = test system: SK-MEL-5

`O=[N+]([O-])c1ccccc1OCCOc1ccccc1[N+](=O)[O-]` was tested, and the GI50 [1] was greater than 100 µM, the GI50 [2] was > 100 µM (inactive) and the GI50 [3] was > 100 µM (inactive). The GI50 [4] was > 100 µM (inactive), the GI50 [5] was > 100 µM (inactive) and the GI50 [6] was > 100 µM (inactive). The GI50 [7] was > 100 µM (inactive), the GI50 [8] was > 100 µM (inactive) and the GI50 [9] was > 100 µM (inactive). For the same compound, the GI50 [10] was > 100 µM (inactive), the GI50 [11] was > 100 µM (inactive) and the GI50 [12] was > 100 µM (inactive). The GI50 [13] was > 100 µM (inactive), the GI50 [14] was > 100 µM (inactive) and the GI50 [15] was > 100 µM (inactive). The GI50 [16] was > 100 µM (inactive), the GI50 [17] was > 100 µM (inactive) and the GI50 [18] was > 100 µM (inactive). The GI50 [19] was > 100 µM (inactive) and the GI50 [20] was > 100 µM (inactive).

With `O=c1nc(Oc2c(F)c(F)c(F)c(F)c2F)ccn1C1OC(CO)C(O)C1O` (stereo not given) the GI50 [1] was greater than 100 µM, the GI50 [2] was > 100 µM (inactive) and the GI50 [3] was > 100 µM (inactive). The GI50 [4] was > 100 µM (inactive), the GI50 [5] was > 100 µM (inactive) and the GI50 [6] was > 100 µM (inactive). For the same compound, the GI50 [7] was > 100 µM (inactive), the GI50 [8] was > 100 µM (inactive) and the GI50 [9] was > 100 µM (inactive). For the same compound, the GI50 [10] was > 100 µM (inactive), the GI50 [11] was > 100 µM (inactive) and the GI50 [12] was > 100 µM (inactive). The GI50 [13] was > 100 µM (inactive), the GI50 [14] was > 100 µM (inactive) and the GI50 [15] was > 100 µM (inactive). The GI50 [16] was > 100 µM (inactive), the GI50 [17] was > 100 µM (inactive) and the GI50 [18] was > 100 µM (inactive). For the same compound, the GI50 [19] was > 100 µM (inactive) and the GI50 [20] was > 100 µM (inactive).

In the case of `O=[N+]([O-])c1cc2ccc(N(CCO)CCO)nc2nc1N(CCO)CCO`, the GI50 [1] is reported as greater than 100 µM, the GI50 [2] is reported as > 100 µM (inactive) and the GI50 [3] is reported as > 100 µM (inactive). For the same compound, the GI50 [4] was > 100 µM (inactive), the GI50 [5] was > 100 µM (inactive) and the GI50 [6] was > 100 µM (inactive). The GI50 [7] was > 100 µM (inactive), the GI50 [8] was > 100 µM (inactive) and the GI50 [9] was > 100 µM (inactive). For the same compound, the GI50 [10] was > 100 µM (inactive), the GI50 [11] was > 100 µM (inactive) and the GI50 [12] was > 100 µM (inactive). The GI50 [13] was > 100 µM (inactive), the GI50 [14] was > 100 µM (inactive) and the GI50 [15] was > 100 µM (inactive). The GI50 [16] was > 100 µM (inactive), the GI50 [17] was > 100 µM (inactive) and the GI50 [18] was > 100 µM (inactive). For the same compound, the GI50 [19] was > 100 µM (inactive) and the GI50 [20] was > 100 µM (inactive).

`Cc1[nH]nc(C(=O)N/N=C/c2cccs2)c1/N=N\N(C)C` was tested, and the GI50 [1] was 13.7 µM, the GI50 [2] was 11.9 µM (inactive) and the GI50 [3] was 13.3 µM (inactive). The GI50 [4] was 20.1 µM (inactive), the GI50 [5] was 3.9 µM (inactive) and the GI50 [6] was 2.96 µM (inactive). For the same compound, the GI50 [7] was 5.06 µM (inactive), the GI50 [8] was 29.7 µM (inactive) and the GI50 [9] was 2.89 µM (inactive). The GI50 [10] was 14.6 µM (inactive), the GI50 [11] was 10.3 µM (inactive) and the GI50 [12] was 26.7 µM (inactive). The GI50 [13] was 11.9 µM (inactive), the GI50 [14] was 23.4 µM (inactive) and the GI50 [15] was 14 µM (inactive). The GI50 [16] was 23.5 µM (inactive), the GI50 [17] was 18.3 µM (inactive) and the GI50 [18] was 12.6 µM (inactive). The GI50 [19] was 24.7 µM (inactive) and the GI50 [20] was 19.6 µM (inactive).

With `O=C1CC(=O)NC(NN2C(=O)/C(=C/c3ccccc3)N=C2c2ccccc2)=N1` the GI50 [1] was greater than 100 µM, the GI50 [2] was > 100 µM (inactive) and the GI50 [3] was > 100 µM (inactive). The GI50 [4] was > 100 µM (inactive), the GI50 [5] was > 100 µM (inactive) and the GI50 [6] was > 100 µM (inactive). The GI50 [7] was > 100 µM (inactive), the GI50 [8] was > 100 µM (inactive) and the GI50 [9] was > 100 µM (inactive). For the same compound, the GI50 [10] was > 100 µM (inactive), the GI50 [11] was > 100 µM (inactive) and the GI50 [12] was > 100 µM (inactive). For the same compound, the GI50 [13] was 26.6 µM (inactive), the GI50 [14] was > 100 µM (inactive) and the GI50 [15] was 26.7 µM (inactive). The GI50 [16] was > 100 µM (inactive), the GI50 [17] was > 100 µM (inactive) and the GI50 [18] was 39 µM (inactive). For the same compound, the GI50 [19] was > 100 µM (inactive) and the GI50 [20] was > 100 µM (inactive).

With `C=CCNC1=C2C[C@@H](C)C[C@@H](OC)[C@H](OC(=O)CN(C)C)[C@H](C)/C=C(\C)[C@@H](OC(N)=O)[C@H](OC)/C=C\C=C(/C)C(=O)NC(=CC1=O)C2=O` the GI50 [1] was 0.535 µM, the GI50 [2] was < 0.0126 µM (active) and the GI50 [3] was 0.071 µM (active). The GI50 [4] was 0.0495 µM (active), the GI50 [5] was 0.151 µM (active) and the GI50 [6] was 0.802 µM (active). For the same compound, the GI50 [7] was 0.0434 µM (active), the GI50 [8] was 10.3 µM (inactive) and the GI50 [9] was 0.114 µM (active). For the same compound, the GI50 [10] was 1.78 µM (inactive), the GI50 [11] was 0.188 µM (active) and the GI50 [12] was 0.0748 µM (active). For the same compound, the GI50 [13] was 4.72 µM (inactive), the GI50 [14] was 0.262 µM (active) and the GI50 [15] was 0.0467 µM (active). For the same compound, the GI50 [16] was 0.0543 µM (active), the GI50 [17] was 0.832 µM (active) and the GI50 [18] was 0.043 µM (active). For the same compound, the GI50 [19] was 0.0485 µM (active) and the GI50 [20] was 0.0538 µM (active).

`CCCCOP(=O)(OCCCC)/C(C#N)=C/c1ccc(C)o1` was tested, and the GI50 [1] was 38.7 µM, the GI50 [2] was 31.9 µM (inactive) and the GI50 [3] was 61.1 µM (inactive). The GI50 [4] was 23.9 µM (inactive), the GI50 [5] was 31.2 µM (inactive) and the GI50 [6] was 42.2 µM (inactive). For the same compound, the GI50 [7] was > 100 µM (inactive), the GI50 [8] was 86.3 µM (inactive) and the GI50 [9] was 35.3 µM (inactive). For the same compound, the GI50 [10] was 26.7 µM (inactive), the GI50 [11] was 93.3 µM (inactive) and the GI50 [12] was 27.4 µM (inactive). For the same compound, the GI50 [13] was 19.1 µM (inactive), the GI50 [14] was 56 µM (inactive) and the GI50 [15] was 53.7 µM (inactive). For the same compound, the GI50 [16] was > 100 µM (inactive), the GI50 [17] was 54.8 µM (inactive) and the GI50 [18] was 30.4 µM (inactive). For the same compound, the GI50 [19] was 28.2 µM (inactive) and the GI50 [20] was 33.7 µM (inactive).

For `C=C1C(=O)O[C@@H]2C[C@@]3(C)CCCC(=C)[C@@H]3C[C@H]12.C=C1C(=O)O[C@@H]2C[C@@]3(C)CCC[C@H](C)C3=C[C@H]12`, the GI50 [1] was 1.55 µM, the GI50 [2] was 1.55 µM (inactive) and the GI50 [3] was 2.13 µM (inactive). The GI50 [4] was 3.2 µM (inactive), the GI50 [5] was 2.04 µM (inactive) and the GI50 [6] was 2.55 µM (inactive). The GI50 [7] was 5.85 µM (inactive), the GI50 [8] was 4.82 µM (inactive) and the GI50 [9] was 1.91 µM (inactive). For the same compound, the GI50 [10] was 1.56 µM (inactive), the GI50 [11] was 3.63 µM (inactive) and the GI50 [12] was 1.65 µM (inactive). The GI50 [13] was 1.45 µM (inactive), the GI50 [14] was 1.71 µM (inactive) and the GI50 [15] was 2.39 µM (inactive). The GI50 [16] was 2.88 µM (inactive), the GI50 [17] was 1.12 µM (inactive) and the GI50 [18] was 2 µM (inactive). The GI50 [19] was 1.42 µM (inactive) and the GI50 [20] was 1.6 µM (inactive).

`COc1ccc(Cc2c(N)[nH]c(=O)n(C)c2=O)cc1` was tested, and the GI50 [1] was 92.7 µM, the GI50 [2] was > 100 µM (inactive) and the GI50 [3] was > 100 µM (inactive). For the same compound, the GI50 [4] was 97.3 µM (inactive), the GI50 [5] was > 100 µM (inactive) and the GI50 [6] was > 100 µM (inactive). For the same compound, the GI50 [7] was > 100 µM (inactive), the GI50 [8] was > 100 µM (inactive) and the GI50 [9] was 11.9 µM (inactive). The GI50 [10] was > 100 µM (inactive), the GI50 [11] was > 100 µM (inactive) and the GI50 [12] was > 100 µM (inactive). For the same compound, the GI50 [13] was > 100 µM (inactive), the GI50 [14] was > 100 µM (inactive) and the GI50 [15] was > 100 µM (inactive). For the same compound, the GI50 [16] was > 100 µM (inactive), the GI50 [17] was > 100 µM (inactive) and the GI50 [18] was > 100 µM (inactive). For the same compound, the GI50 [19] was > 100 µM (inactive) and the GI50 [20] was > 100 µM (inactive).

In the case of `O=C(NCCN1C(=O)CN=C(c2ccc(Cl)cc2)c2cc(Cl)ccc21)OCc1ccccc1`, the GI50 [1] is reported as 13.4 µM, the GI50 [2] is reported as 19.8 µM (inactive) and the GI50 [3] is reported as 18.9 µM (inactive). For the same compound, the GI50 [4] was 11.5 µM (inactive), the GI50 [5] was 5.06 µM (inactive) and the GI50 [6] was 16.3 µM (inactive). For the same compound, the GI50 [7] was 14.3 µM (inactive), the GI50 [8] was 19.2 µM (inactive) and the GI50 [9] was 18.1 µM (inactive). The GI50 [10] was 10.8 µM (inactive), the GI50 [11] was 15.2 µM (inactive) and the GI50 [12] was 15.3 µM (inactive). The GI50 [13] was 15.6 µM (inactive), the GI50 [14] was 11.2 µM (inactive) and the GI50 [15] was 14.8 µM (inactive). The GI50 [16] was 16.7 µM (inactive), the GI50 [17] was 19.7 µM (inactive) and the GI50 [18] was 14.1 µM (inactive). The GI50 [19] was 16.4 µM (inactive) and the GI50 [20] was 15.2 µM (inactive).
